Reference: paper PMC7480105, “Wbox2: A clathrin terminal domain–derived peptide inhibitor of clathrin-mediated endocytosis” (The Journal of Cell Biology, 2020)
No end group written: not given here.

Test system: TfnR uptake via CME in ARPE/HPV cells
Experiment: TfnR uptake (in-cell ELISA) after peptide preincubation
Type: cell-based
Settings: 60-min preincubation with peptide at 37°C, concentration curves, n = 4 replicates (Fig. 7 F), read-out: IC50 for inhibition of TfnR uptake
Method: Peptides encoding the TAT sequence (YGRKKRRQRRR) followed by 10 amino acid sequences covering the four reported binding sites on the clathrin terminal domain (Fig. 7 A) were synthesized by GenScript (Piscataway, NJ) with >95% purity. Peptides were dissolved in dH2O and further diluted in PBS4+ (1× PBS buffer plus 0.2% BSA, 1 mM CaCl2, 1 mM MgCl2, and 5 mM D-glucose) or cell culture medium (for imaging) when applied to cells. Peptide solutions were stored at −20°C.
Internalization of TfnR, CD44, CD59, and Biotin-Tfn was quantified by in-cell ELISA following established protocols ([Conner and Schmid, 2003]; [Srinivasan et al., 2018]). Cells were seeded in 96-well plates (Costar) at 60–70% confluence and grown overnight. Before the assay, cells were starved for 30 min in PBS4+ at 37°C or treated with peptides in PBS4+ at 37°C for the indicated times. After starvation, cells were moved to 4°C, and culture medium was replaced with cold PBS4+ containing 5 µg/ml HTR-D65 (anti-TfnR mAb; [Schmid and Smythe, 1991]), anti-human CD44 or anti-human CD59 (BD PharMingen) or 5 µg/ml Biotin-Tfn (Sigma-Aldrich). For single-round assays, the above reagents were kept with cells for 20 min at 4°C and then washed out before uptake assay. For multiround assays, the above reagents were kept with cells throughout the uptake process. In parallel, some cells were kept at 4°C for the measurement of surface-bound ligands and blank controls, and some were incubated in a 37°C water bath for the indicated times. Acid wash (0.2 M acetic acid and 0.2 M NaCl, pH 2.3) was used to remove surface-bound antibodies, followed by washing with cold PBS. All were fixed with 4% PFA (Electron Microscopy Sciences) in PBS for 30 min at 37°C. 0.1% Triton X-100 was added for 6.5 min to permeabilize cells, followed by addition of blocking buffer. HTR-D65–, CD44-, and CD59-treated cells were blocked with Q-PBS (PBS, 2% BSA, 0.1% lysine, and 0.01% saponin, pH 7.4), and Biotin-Tfn–treated cells were blocked with 2% casein. Surface-bound and internalized HTR-D65, CD44, and CD59 were probed with goat anti-mouse antibody conjugated with HRP (Sigma-Aldrich), and Biotin-Tfn was probed with Streptavidin-POD conjugate (Sigma-Aldrich). Color was developed using o-phenylenediamine dihydrochloride (OPD) solution (Sigma-Aldrich), and absorbance was read at 490 nm (Biotek Synergy H1 Hybrid Reader). Cell number variation among wells was accounted for by bicinchoninic acid assay reading at 562 nm.

Row | Sequence | IC50
1 | YGRKKRRQRRRLAGCQIINYR [Wbox1] | ~3 µM
2 | YGRKKRRQRRRKTLQIFKSKI [Cbox2] | > 100 µM
3 | YGRKKRRQRRRKAGKTLQIFN [Cbox1] | ~60 µM
